Data taken from patent publication US20100210518A1, “Peg-lipid conjugates for increasing the solubility of drug compounds” (priority 2009, published 2010).

Settings: mouse, in vivo, 25 mg/kg, pH 6
Protocol: Experiments were performed to determine blood levels of Gefitinib formulations after both intravenous and oral dosing. […] Groups of three male mice (B6D2F1) were used for the studies. HPLC-MS analyses were performed on heparinized mouse plasma samples obtained typically at 0 hr, 0.08 hr, 0.5 hr, 1 hr, 2 hr, 4 hr, 7 hr, 16 hr and 24 hr after bolus IV injection. After oral feeding, the analyses were performed at 0 hr, 0.5 hr, 1 hr, 2 hr, 4 hr, 8 hr, 16 hr and 24 hr. To determine the level of each drug, the drug was first isolated from plasma with a sample pre-treatment. Acetonitrile were used to remove proteins in samples. An isocratic HPLC-MS/MS method was then used to separate the drugs from any potential interference. Drug levels were measured by MS detection with a multiple reaction monitoring (MRM) mode. PK data was analyzed using the WinNonlin program (ver. 5.2, Pharsight) compartmental models of analysis.
The drug was administered orally and the dosing strength was 25 mg/kg. The drug was also administered intravenously and the dosing strength was 25 mg/kg in 15% Cremophor EL® and in 10 mM sodium phosphate buffer (pH 6.0). The AUC (31.3) obtained from the IV administration was used for calculating the relative bioavailability (BA).

In the case of “3,4-Di(oleoyloxy)-decaethylene glycol-benzoate [DDGB]”, the “relative bioavailability (BA)” value was 56.0%.
